ChEMBL document CHEMBL1201862, “PubChem BioAssay data set” (2004)
Activity calls are given as the source filed them.

What was measured:
Cysteine protease ATG4B = molecular target: T1, Cysteine protease ATG4B (Homo sapiens, UniProt Q9Y4P1); assay type: functional;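 note: Fluorescence-based dose-response confirmation assay measuring inhibition of ATG4B activity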
T1 sequence (Q9Y4P1 whole entry): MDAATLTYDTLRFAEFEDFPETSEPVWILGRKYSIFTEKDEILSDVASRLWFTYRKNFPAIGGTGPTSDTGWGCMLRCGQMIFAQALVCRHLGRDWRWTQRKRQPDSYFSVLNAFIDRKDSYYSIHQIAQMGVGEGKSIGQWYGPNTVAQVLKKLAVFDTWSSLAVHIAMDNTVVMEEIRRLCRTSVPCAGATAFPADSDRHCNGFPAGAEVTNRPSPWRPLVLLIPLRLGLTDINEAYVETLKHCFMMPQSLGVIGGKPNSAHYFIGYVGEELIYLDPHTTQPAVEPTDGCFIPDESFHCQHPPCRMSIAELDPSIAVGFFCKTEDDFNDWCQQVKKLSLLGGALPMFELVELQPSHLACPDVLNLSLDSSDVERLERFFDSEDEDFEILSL

Phospholipase A2 = Phospholipase A2 (Homo sapiens, UniProt P04054); assay type: functional;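 note: confirmatory dose-response counterscreen on phospholipase A2, testing hits that came from an ultra-high-throughput screen for ATG4B inhibitors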
Phospholipase A2, sequence (P04054 whole entry): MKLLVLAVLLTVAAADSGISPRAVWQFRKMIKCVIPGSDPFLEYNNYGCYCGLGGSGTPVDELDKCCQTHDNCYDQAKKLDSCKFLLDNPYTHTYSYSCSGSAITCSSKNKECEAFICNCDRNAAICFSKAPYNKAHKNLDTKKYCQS

[1] = molecular target: T2, Apoptotic protease-activating factor 1 (Homo sapiens, UniProt O14727); assay type: functional
T2 sequence (O14727 whole entry): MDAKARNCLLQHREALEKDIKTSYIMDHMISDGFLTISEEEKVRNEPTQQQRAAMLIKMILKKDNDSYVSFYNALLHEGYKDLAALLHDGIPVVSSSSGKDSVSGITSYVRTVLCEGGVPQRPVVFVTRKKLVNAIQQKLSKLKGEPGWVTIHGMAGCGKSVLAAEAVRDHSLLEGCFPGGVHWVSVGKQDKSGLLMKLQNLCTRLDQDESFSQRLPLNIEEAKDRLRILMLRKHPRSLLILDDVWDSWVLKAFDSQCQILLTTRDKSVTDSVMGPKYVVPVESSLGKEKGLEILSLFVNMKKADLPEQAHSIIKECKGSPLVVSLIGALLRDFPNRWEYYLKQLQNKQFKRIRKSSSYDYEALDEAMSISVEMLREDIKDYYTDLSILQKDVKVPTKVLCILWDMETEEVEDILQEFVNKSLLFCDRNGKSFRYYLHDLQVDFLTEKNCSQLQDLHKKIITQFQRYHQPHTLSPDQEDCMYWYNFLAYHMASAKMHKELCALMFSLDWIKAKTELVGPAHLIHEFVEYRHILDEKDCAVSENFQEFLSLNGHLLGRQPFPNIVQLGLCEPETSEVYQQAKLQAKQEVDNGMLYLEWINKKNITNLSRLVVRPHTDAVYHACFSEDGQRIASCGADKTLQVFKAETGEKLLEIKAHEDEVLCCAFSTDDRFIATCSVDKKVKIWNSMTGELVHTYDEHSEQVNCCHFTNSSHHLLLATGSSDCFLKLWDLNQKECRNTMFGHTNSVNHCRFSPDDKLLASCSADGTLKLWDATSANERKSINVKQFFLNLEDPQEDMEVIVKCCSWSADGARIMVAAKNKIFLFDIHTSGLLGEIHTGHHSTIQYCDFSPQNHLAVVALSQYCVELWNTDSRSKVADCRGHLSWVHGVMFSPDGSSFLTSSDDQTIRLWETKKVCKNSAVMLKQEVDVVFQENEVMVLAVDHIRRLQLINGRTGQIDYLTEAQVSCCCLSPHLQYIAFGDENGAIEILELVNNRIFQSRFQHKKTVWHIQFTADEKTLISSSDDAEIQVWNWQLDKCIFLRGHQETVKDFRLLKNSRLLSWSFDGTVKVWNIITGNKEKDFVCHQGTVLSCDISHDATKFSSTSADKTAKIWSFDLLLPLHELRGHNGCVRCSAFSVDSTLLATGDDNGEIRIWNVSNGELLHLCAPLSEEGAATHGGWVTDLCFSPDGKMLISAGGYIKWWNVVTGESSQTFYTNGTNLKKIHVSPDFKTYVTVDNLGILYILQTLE

[2] = molecular target: T3, Histone-lysine N-methyltransferase NSD2 (Homo sapiens, UniProt O96028); assay type: biochemical
T3 sequence (O96028 whole entry): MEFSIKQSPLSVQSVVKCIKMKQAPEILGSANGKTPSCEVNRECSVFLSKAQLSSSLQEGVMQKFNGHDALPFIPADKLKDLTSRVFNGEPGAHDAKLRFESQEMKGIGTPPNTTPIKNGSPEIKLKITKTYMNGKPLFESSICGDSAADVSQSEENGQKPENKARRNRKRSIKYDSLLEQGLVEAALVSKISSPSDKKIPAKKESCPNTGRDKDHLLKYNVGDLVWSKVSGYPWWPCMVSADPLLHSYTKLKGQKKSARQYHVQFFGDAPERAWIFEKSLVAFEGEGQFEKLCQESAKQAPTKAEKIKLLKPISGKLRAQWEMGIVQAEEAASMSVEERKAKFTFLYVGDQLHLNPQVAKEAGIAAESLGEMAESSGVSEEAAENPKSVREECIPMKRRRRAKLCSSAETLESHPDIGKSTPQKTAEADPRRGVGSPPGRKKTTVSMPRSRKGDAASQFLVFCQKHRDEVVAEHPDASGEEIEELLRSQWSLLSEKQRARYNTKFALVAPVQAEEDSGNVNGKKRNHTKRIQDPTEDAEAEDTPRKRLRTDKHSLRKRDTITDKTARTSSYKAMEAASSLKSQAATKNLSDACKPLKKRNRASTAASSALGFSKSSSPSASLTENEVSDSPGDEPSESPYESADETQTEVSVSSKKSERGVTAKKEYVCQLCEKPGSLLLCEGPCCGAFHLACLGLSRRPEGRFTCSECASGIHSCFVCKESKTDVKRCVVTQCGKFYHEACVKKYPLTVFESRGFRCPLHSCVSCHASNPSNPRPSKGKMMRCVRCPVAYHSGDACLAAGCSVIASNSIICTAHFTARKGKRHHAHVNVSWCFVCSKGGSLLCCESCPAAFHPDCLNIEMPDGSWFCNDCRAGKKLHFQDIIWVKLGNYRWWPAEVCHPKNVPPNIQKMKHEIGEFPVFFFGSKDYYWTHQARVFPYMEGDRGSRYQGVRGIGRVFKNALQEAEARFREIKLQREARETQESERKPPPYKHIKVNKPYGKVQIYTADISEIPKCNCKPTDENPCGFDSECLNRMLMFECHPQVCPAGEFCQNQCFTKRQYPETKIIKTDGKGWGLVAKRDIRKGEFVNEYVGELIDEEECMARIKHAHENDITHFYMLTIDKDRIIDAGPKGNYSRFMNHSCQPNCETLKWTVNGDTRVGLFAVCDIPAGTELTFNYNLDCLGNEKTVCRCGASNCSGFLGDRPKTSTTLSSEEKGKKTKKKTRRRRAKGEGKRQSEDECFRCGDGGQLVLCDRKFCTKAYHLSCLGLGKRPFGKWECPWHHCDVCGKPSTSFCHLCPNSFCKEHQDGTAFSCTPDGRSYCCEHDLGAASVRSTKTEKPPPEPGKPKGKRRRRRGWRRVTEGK

Row | SMILES | IC50 (Cysteine protease ATG4B) | IC50 (Phospholipase A2) | IC50 [1] | AC50 [2]
1 | COC(=O)c1cc(C)nc2c1C(=O)C(=O)C=C2N1CCOCC1 | 4.45 µM (active) | 65.6 µM (inactive) | 1.01 µM (active) | 0.407 µM (active)
2 | NS(=O)(=O)c1cc(C(=O)NC2CCSc3ccccc32)ccc1Cl (configuration not stated) | 6.64 µM (active) | 24.1 µM (inactive) | – | –
3 | O=C1c2ccccc2C(=O)c2[nH]c(O)nc21 | – | – | 6.79 µM (active) | –
4 | CCOC(=O)C1=C(C)OC2(O)c3ccccc3C(=O)C12O (configuration not stated) | – | – | 2.55 µM (active) | 8.9 µM (active)
5 | N#Cc1c(N2CCCC2)nc(N)c2c(N)nc(N3CCCC3)cc12 | 1.64 µM (active) | 11.7 µM (active) | 0.181 µM (active) | –
